Values belong to the compound of their own block, whether it stands above or below them.
Experiments:
mGlu4 [1] = details: read-out: hEC50; human mGlu4 PAM potency; cited from earlier work
mGlu4 [2] = biological target: mGlu4 (Rattus norvegicus, UniProt P31423); test: PET imaging of [^18F]3 in rats, baseline and blocking studies; format: in vivo, rat (male Sprague–Dawley); details: blocking agent 10 mg/kg injected 5 min before [^18F]3; uptake as area under TAC
human mGlu4 = details: read-out: IC50 (binding affinity to mGlu4); human mGlu4, Merck's patent; cited from earlier work
mGlu8 = mGlu8 (Homo sapiens, UniProt O00222); test: selectivity test, split luciferase biosensor cAMP assay in transfected CHO cells; format: cell-based; details: single concentration 10 μM
Chain of mGlu8 (O00222 34-908): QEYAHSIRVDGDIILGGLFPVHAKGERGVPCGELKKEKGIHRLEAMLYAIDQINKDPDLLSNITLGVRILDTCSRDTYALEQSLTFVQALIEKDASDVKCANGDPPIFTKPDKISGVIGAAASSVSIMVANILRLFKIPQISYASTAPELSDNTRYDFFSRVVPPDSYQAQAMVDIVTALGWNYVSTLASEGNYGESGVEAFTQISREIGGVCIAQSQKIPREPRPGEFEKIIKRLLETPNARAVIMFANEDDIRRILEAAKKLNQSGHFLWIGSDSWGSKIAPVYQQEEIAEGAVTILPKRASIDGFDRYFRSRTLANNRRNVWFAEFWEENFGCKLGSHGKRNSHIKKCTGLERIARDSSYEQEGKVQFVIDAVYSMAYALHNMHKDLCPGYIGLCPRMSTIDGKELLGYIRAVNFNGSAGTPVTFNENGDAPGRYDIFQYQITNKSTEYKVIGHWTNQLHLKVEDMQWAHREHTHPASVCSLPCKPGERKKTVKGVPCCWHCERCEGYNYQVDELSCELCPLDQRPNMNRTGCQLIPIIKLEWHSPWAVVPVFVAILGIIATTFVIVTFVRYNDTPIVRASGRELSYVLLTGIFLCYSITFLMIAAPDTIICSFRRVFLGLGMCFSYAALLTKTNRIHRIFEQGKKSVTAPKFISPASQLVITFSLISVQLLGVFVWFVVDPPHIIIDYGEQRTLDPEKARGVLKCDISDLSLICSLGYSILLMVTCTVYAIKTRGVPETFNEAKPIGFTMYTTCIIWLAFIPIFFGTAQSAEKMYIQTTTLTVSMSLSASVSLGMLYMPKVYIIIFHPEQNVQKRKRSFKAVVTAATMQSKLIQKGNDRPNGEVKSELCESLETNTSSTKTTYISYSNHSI

[3] = stability of 3 in neutral and acidic media by LC–MS; format: physicochemical
mGlu1a = test: selectivity functional assay, IPs accumulation in CHO cells; format: cell-based; details: single concentration 10 μM
mGlu5a = test: as above; format: cell-based; details: single concentration 10 μM

Chain of mGlu4 (Rattus norvegicus, UniProt P31423) (P31423 33-912): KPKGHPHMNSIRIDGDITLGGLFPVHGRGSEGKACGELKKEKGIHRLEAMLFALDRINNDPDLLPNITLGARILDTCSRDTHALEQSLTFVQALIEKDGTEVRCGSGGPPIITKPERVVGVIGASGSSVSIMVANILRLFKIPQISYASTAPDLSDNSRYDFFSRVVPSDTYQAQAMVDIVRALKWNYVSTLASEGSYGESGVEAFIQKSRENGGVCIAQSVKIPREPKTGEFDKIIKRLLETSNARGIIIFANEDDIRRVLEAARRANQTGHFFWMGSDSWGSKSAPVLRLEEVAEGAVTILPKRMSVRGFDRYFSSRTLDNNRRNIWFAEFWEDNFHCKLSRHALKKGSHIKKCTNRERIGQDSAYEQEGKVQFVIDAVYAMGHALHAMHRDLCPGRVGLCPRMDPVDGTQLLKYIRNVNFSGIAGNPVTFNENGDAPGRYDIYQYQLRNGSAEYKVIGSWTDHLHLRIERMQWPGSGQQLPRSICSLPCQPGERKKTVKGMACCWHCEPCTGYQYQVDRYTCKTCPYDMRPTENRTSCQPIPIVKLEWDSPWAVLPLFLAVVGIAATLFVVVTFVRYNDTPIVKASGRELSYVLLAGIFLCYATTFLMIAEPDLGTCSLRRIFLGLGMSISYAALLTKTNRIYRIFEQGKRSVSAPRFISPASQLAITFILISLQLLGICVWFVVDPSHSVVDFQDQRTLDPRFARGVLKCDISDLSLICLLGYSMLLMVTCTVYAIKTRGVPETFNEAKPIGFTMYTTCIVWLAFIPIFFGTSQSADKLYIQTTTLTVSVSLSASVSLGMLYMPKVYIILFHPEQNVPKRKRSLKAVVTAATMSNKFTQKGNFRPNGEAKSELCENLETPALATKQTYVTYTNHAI

reduced uptake of [^18F]3 in rat brain regions (blocking effect) (mGlu4 [2]): 10–20%
Structure (SMILES): O=C(Nc1cccc(OC(F)F)c1)c1ccccn1 [Compound 2, N-(3-(difluoromethoxy)phenyl)-2-picolinamide]

Structure (SMILES): Cc1cccc2c1C(=O)N(c1ccc(NC(=O)c3ccccn3)cc1Br)C2=O [Compound 5]
EC50 (mGlu4 [1]): 101 nM | IC50 (human mGlu4): 12 nM

agonist or antagonist activity at mGlu8 (mGlu8): little activity | stability in neutral media ([3]; 0.1 M ammonium formate water–acetonitrile solution): two side products were detected | stability in acidic media ([3]; acidic media): minimal hydrolysis products
Structure (SMILES): O=C(Nc1ccc(N2C(=O)c3cccc(F)c3C2=O)c(Cl)c1)c1ccccn1 [Compound 3, N-(3-Chloro-4-(4-fluoro-1,3-dioxoisoindolin-2-yl)phenyl)-2-picolinamide]
agonist or antagonist activity at mGlu1 (mGlu1a): little activity | agonist or antagonist activity at mGlu5 (mGlu5a): little activity
